# Source: US20240239811A1, “5-(5-(PIPERIDIN-4-YL)THIENO[3,2-C]PYRAZOL-2-YL]INDAZOLE DERIVATIVES AND RELATED COMPOUNDS AS MODULATORS FOR SPLICING NUCLEIC ACIDS AND FOR THE T” (REMIX THERAPEUTICS INC., priority 2020, published 2024)
# pIC50: −log10 of the molar value. Counter-ions that a name gives are not always drawn.
# Experiments:
# Type in all cases: cell-based
# HTT mRNA = test: Splicing assay (RT-qPCR) monitoring HTT splice variants, canonical (CJ) and alternative (AJ) junction; conditions: 50% response, A673 or K562 cell line, 24 hours; for pIC50: decrease in CJ mRNA; for AC50: increase in AJ mRNA
# Procedure: (§1) Compounds described herein were used to modulate RNA transcript abundance in cells. The expression of a target mRNA was measured by detecting the formation of an exon-exon junction in the canonical transcript (CJ). A compound mediated exon-inclusion event was detected by observing an increase in formation of a new junction with an alternative exon (AJ). Real-time qPCR assays were used to detect these splicing switches and interrogate the potency of various compounds towards different target genes. A high-throughput real time quantitative PCR (RT-qPCR) assay was developed to measure these two isoforms of the mRNA (CJ and AJ) for an exemplary gene, HTT, together with a control housekeeping gene, GAPDH or GUSB or PPIA, used for normalization. Briefly, the A673 or K562 cell line was treated with various compounds described herein (e.g., compounds of Formula (I)). After treatment, the levels of the HTT mRNA targets were determined from each sample of cell lysate by cDNA synthesis followed by qPCR.
# • Cells-to-CT 1-step kit: ThermoFisher A25602, Cells-to-CT lysis reagent: ThermoFisher 4391851C, TaqMan™ Fast Virus 1-Step Master Mix: ThermoFisher 4444436 • GAPDH: VIC-PL, ThermoFisher 4326317E (Assay: Hs99999905_ml)—used for K562/suspension cell lines • GUSB: VIC-PL, ThermoFisher 4326320E (Assay: Hs99999908_ml)—used for K562/suspension cell lines • PPIA: VIC-PL, ThermoFisher 4326316E (Assay: Hs99999904_ml)—used for A673/adherent cell lines
# (§2) The A673 cell line was cultured in DMEM with 10% FBS. Cells were diluted with full growth media and plated in a 96-well plate (15,000 cells in 100ul media per well). The plate was incubated at 37° C. with 5% CO2 for 24 hours to allow cells to adhere. An 11-point 3-fold serial dilution of the compounds was made in DMSO then diluted in media in an intermediate plate. Compounds were transferred from the intermediate plate to the cell plate with the top dose at a final concentration of 10 uM in the well. Final DMSO concentration was kept at or below 0.25%. The cell plate was returned to the incubator at 37° C. with 5% CO2 for an additional 24 hours.
# (§3) The K562 cell line was cultured in IMDM with 10% FBS. For K562, cells were diluted with full growth media and plated in either a 96-well plate (50,000 cells in 50 uL media per well) or a 384-well plate (8,000-40,000 cells in 45 uL media per well). An 11-point 3-fold serial dilution of the compounds were made in DMSO then diluted in media in an intermediate plate. Compound was transferred from the intermediate plate to the cell plate with the top dose at a final concentration of 10 uM in the well. Final DMSO concentration was kept at or below 0.25%. Final volume was 100 uL for 96-well plate and 50 uL for 384-well plate. The cell plate was then placed in an incubator at 37° C. with 5% CO2 for 24 hours.
# The cells were then gently washed with 50 uL-100 uL cold PBS before proceeding to addition of lysis buffer. 30 uL-50 uL of room temperature lysis buffer with DNAse I (and optionally RNAsin) was added to each well. Cells were shaken/mixed thoroughly at room temperature for 5-10 minutes for lysis to take place and then 3 uL-5 uL of room temperature stop solution was added and wells were shaken/mixed again. After 2-5 minutes, the cell lysate plate was transferred to ice for RT-qPCR reaction setup. The lysates could also be frozen at −80° C. for later use.
# In some cases, a direct lysis buffer was used. An appropriate volume of 3X lysis buffer (10 mM Tris, 150 mM NaCl, 1.5%-2.5% Igepal and 0.1-1 U/uL RNAsin, pH 7.4) was directly added to either K562 or A673 cells in media and mixed by pipetting 3 times. The plates were then incubated at room temperature with shaking/rocking for 20-50 minutes to allow for lysis to take place. After this time, the cell lysate plate was transferred to ice to set up for the RT-qPCR reactions. The lysates could also be frozen at −80° C. for later use. […]
# HTT CJ mRNA = test: Gene panel canonical junction qPCR assay, HTT; conditions: Table 6, decrease in CJ mRNA, read-out: HTT IC50 (decrease in CJ mRNA levels)
# Procedure: as §1, §2, §3
# (§4) The data analysis was performed by first determining the ΔCt vs the housekeeper gene. This ΔCt was then normalized against the DMSO control (ΔΔCt) and converted to RQ (relative quantification) using the 2^(−ΔΔCt) equation. The RQ were then converted to a percentage response by arbitrarily setting an assay window of 3.5 ΔCt for HTT-CJ and an assay window of 9 ΔCt for HTT-AJ. […] The percentage response was then fitted to the 4 parametric logistic equation to evaluate the concentration dependence of compound treatment. The increase in AJ mRNA is reported as AC50 (compound concentration having 50% response in AJ increase) while the decrease in CJ mRNA levels is reported as IC50 (compound concentration having 50% response in CJ decrease).
# (§5) Additional studies were carried out for a larger panel of genes using the protocol provided above. The junction between flanking upstream and downstream exons was used to design canonical junction qPCR assays. At least one of the forward primer, reverse primer or the CY5-labeled 5′ nuclease probe (with 3′ quencher such as ZEN/Iowa Black FQ) was designed to overlap with the exon junction to capture the CJ mRNA transcript. BLAST was used to confirm the specificity of the probeset and parameters such as melting temperature, GC content, amplicon size, and primer dimer formation are considered during their design. Data for the decrease in CJ mRNA levels for three exemplary genes (HTT, SMN2, and Target C) analyzed in this panel are reported as IC50 (compound concentration having […] in CJ decrease).
# SMN2 CJ mRNA = test: Gene panel canonical junction qPCR assay, SMN2; conditions: Table 6, decrease in CJ mRNA, read-out: SMN2 IC50 (decrease in CJ mRNA levels)
# Procedure: as §1, §2, §3, §4, §5
# Target C CJ mRNA = test: Gene panel canonical junction qPCR assay, Target C; conditions: Table 6, decrease in CJ mRNA, read-out: Target C IC50 (decrease in CJ mRNA levels)
# Procedure: as §1, §2, §3, §4, §5
Structure (SMILES),pIC50 (HTT mRNA),AC50 (HTT mRNA),pIC50 (HTT CJ mRNA),pIC50 (SMN2 CJ mRNA),pIC50 (Target C CJ mRNA)
"CN1CCC(N(C)c2cc3sc(-c4cc(F)c5nn(C)cc5c4)nc3s2)CC1 [Compound 145, N-[2-(7-fluoro-2-methylindazol-5-yl)thieno[2,3-d][1,3]thiazol-5-yl]-N,1-dimethylpiperidin-4-amine]",< 5.00,> 10000 nM,< 5.00,6.00 to 7.00,< 5.00
"Cc1cn2nc(-c3nc4sc(C5CCNCC5)cc4s3)cc(C)c2n1 [Compound 112, 4-(2-[2,8-dimethylimidazo[1,2-b]pyridazin-6-yl]thieno[2,3-d][1,3]thiazol-5-yl)piperidine]",> 7.00,< 100 nM,> 7.00,> 7.00,> 7.00
"Cc1cn2cc(-c3nc4sc(C5CCNCC5)cc4s3)cc(F)c2n1 [Compound 130, 4-(2-[8-fluoro-2-methylimidazo[1,2-a]pyridin-6-yl]thieno[2,3-d][1,3]thiazol-5-yl)piperidine hydrochloride]",> 7.00,< 100 nM,> 7.00,> 7.00,> 7.00
Cc1cn2cc(-n3cc4cc(C5CCNCC5)sc4n3)cc(C)c2n1 [Compound 155],6.00 to 7.00,100 to 1000 nM,6.00 to 7.00,> 7.00,5.00 to 6.00
"Cn1cc2cc(-n3cc4sc(C5CCNCC5)cc4n3)cc(F)c2n1 [Compound 105, 7-fluoro-2-methyl-5-[5-(piperidin-4-yl)thieno[3,2-c]pyrazol-2-yl]indazole]",6.00 to 7.00,100 to 1000 nM,6.00 to 7.00,6.00 to 7.00,5.00 to 6.00
Cn1cc2cc(-c3cc4cn(C5CCNCC5)nc4s3)ccc2n1 [Compound 207],6.00 to 7.00,100 to 1000 nM,6.00 to 7.00,> 7.00,5.00 to 6.00
Cn1cc2c(F)cc(-n3cc4cc(C5CCNCC5)sc4n3)cc2n1 [Compound 174],< 5.00,> 10000 nM,< 5.00,5.00 to 6.00,< 5.00
Cc1cc(-c2cc3cn(C4CCNCC4)nc3s2)cc2cn(C)nc12 [Compound 225],> 7.00,< 100 nM,> 7.00,> 7.00,6.00 to 7.00
"Cn1cc2cc(-c3cn4nc(C5CCNCC5)nc4s3)cc(F)c2n1 [Compound 102, 7-fluoro-2-methyl-5-[2-(piperidin-4-yl)-[1,2,4]triazolo[3,2-b][1,3]thiazol-5-yl]indazole]",6.00 to 7.00,100 to 1000 nM,6.00 to 7.00,> 7.00,6.00 to 7.00
c1n[nH]cc1-n1cc2sc(C3CCNCC3)cc2n1 [Compound 176],< 5.00,> 10000 nM,< 5.00,< 5.00,< 5.00
"Cc1nc2c(F)cc(-c3nc4sc(C5CCNCC5)cc4s3)cc2o1 [Compound 132, 4-fluoro-2-methyl-6-[5-(piperidin-4-yl)thieno[2,3-d][1,3]thiazol-2-yl]-1,3-benzoxazole]",> 7.00,< 100 nM,> 7.00,> 7.00,6.00 to 7.00
"Cc1cn2nc(-c3nc4sc(C5CCNCC5)cc4s3)cc2c(C)n1 [Compound 133, 4-(2-[4,6-dimethylpyrazolo[1,5-a]pyrazin-2-yl]thieno[2,3-d][1,3]thiazol-5-yl)piperidine]",6.00 to 7.00,100 to 1000 nM,6.00 to 7.00,6.00 to 7.00,6.00 to 7.00
COc1cc2nn(C)cc2cc1-c1cc2cn(C3CCNCC3)nc2s1 [Compound 208],6.00 to 7.00,100 to 1000 nM,6.00 to 7.00,> 7.00,6.00 to 7.00
Cn1cc2cc(-c3cc4cn([C@H]5CCNC[C@@H]5F)nc4s3)cc(F)c2n1 [Compound 190],6.00 to 7.00,100 to 1000 nM,6.00 to 7.00,,
"Cn1cc2cc(-n3cc4sc(C5CCNCC5)cc4n3)ccc2n1 [Compound 100, 2-methyl-5-[5-(piperidin-4-yl)thieno[3,2-c]pyrazol-2-yl]indazole]",,1000 to 10000 nM,,,< 5.00
"Cn1cc2cc(-c3cc4nn(C5CCNCC5)cc4s3)cc(F)c2n1 [Compound 121, 7-fluoro-2-methyl-5-[2-(piperidin-4-yl)thieno[3,2-c]pyrazol-5-yl]indazole]",6.00 to 7.00,100 to 1000 nM,6.00 to 7.00,> 7.00,
"Cc1cn2nc(-n3cc4cc(C5CCNCC5)sc4n3)cc(C)c2n1 [Compound 110, 4-(2-[2,8-dimethylimidazo[1,2-b]pyridazin-6-yl]thieno[2,3-c]pyrazol-5-yl) piperidine]",6.00 to 7.00,100 to 1000 nM,6.00 to 7.00,> 7.00,
